Calls of active or inactive are those of the source. No cut-off for these calls is given here.
What was measured:
HepG2 [1] = assay: Induction of apoptosis in human HepG2 cells assessed as live cells at 2.5 uM measured after 24 hrs by Annexin V-FITC/PI staining based flow cytometry analysis (Rvb= 84.6%); format: functional
HepG2 [2] = assay: Induction of apoptosis in human HepG2 cells assessed as early apoptotic cells at 10 uM measured after 24 hrs by Annexin V-FITC/PI staining based flow cytometry analysis (Rvb= 6.15%); format: functional
HepG2 [3] = assay: Induction of apoptosis in human HepG2 cells assessed as live cells at 10 uM measured after 24 hrs by Annexin V-FITC/PI staining based flow cytometry analysis (Rvb= 84.6%); format: functional
PLC-PRF-5 = assay: Antiproliferative activity against human PLC-PRF-5 cells assessed as inhibition of cell growth measured after 72 hrs by MTT assay; format: functional, cell-based; details: PLC-PRF-5, 72 h
HepG2 [4] = assay: Induction of cell cycle arrest in human HepG2 cells assessed as accumulation of cells in G0/G1 phase at 6 uM measured after 24 hrs by propidium iodide staining based flow cytometry analysis (reference value: 52.7 to 63.2%); format: functional
HepG2 [5] = assay: Induction of apoptosis in human HepG2 cells assessed as late apoptotic cells at 2.5 uM measured after 24 hrs by Annexin V-FITC/PI staining based flow cytometry analysis (Rvb= […]); format: functional
HCT-116 = assay: cells; format: functional, cell-based; details: Homo sapiens, HCT-116, 72 h
Description: Antiproliferative activity against human HCT-116 cells assessed as inhibition of cell growth measured after 72 hrs by MTT assay

HepG2 [6] = assay: Induction of cell cycle arrest in human HepG2 cells assessed as accumulation of cells in G0/G1 phase at 1.5 uM measured after 24 hrs by propidium iodide staining based flow cytometry analysis (reference value: 52.7 to 63.2%); format: functional
[7] = target: T1, Histone deacetylase (Homo sapiens) (UniProt Q13547+O15379+Q9UBN7+Q92769+Q9UQL6+Q8WUI4+Q9BY41+Q96DB2+P56524+Q9UKV0+Q969S8); assay: Inhibition of HDAC in human HepG2 cells assessed as upregulation of histone H3 acetylation at 6 uM measured after 24 hrs by western blot analysis; format: cell-based
HepG2 [8] = assay: Antiproliferative activity against human HepG2 cells assessed as inhibition of cell growth measured after 72 hrs by MTT assay; format: functional, cell-based; details: HepG2, 72 h
[9] = target: T2, Serine/threonine-protein kinase mTOR (Homo sapiens, UniProt P42345); assay: Inhibition of mTOR in human HepG2 cells assessed as reduction in phosphorylation of 4EBP1 measured after 24 hrs by western blot analysis; format: cell-based; details: dose 1.5-6 µM
HepG2 [10] = assay: Antimigratory activity in human HepG2 cells assessed as reduction in wound closure measured after 24 to 48 hrs by scratch wound healing assay; format: functional, cell-based; details: dose 1.5-6 µM, time 24-48 hrs
Histone deacetylase 3 = Histone deacetylase 3 (Homo sapiens, UniProt O15379); assay: Inhibition of HDAC3 (unknown origin) using Ac-peptide as a substrate pretreated for 15 mins followed by substrate addition
Histone deacetylase 3, sequence (O15379 whole entry): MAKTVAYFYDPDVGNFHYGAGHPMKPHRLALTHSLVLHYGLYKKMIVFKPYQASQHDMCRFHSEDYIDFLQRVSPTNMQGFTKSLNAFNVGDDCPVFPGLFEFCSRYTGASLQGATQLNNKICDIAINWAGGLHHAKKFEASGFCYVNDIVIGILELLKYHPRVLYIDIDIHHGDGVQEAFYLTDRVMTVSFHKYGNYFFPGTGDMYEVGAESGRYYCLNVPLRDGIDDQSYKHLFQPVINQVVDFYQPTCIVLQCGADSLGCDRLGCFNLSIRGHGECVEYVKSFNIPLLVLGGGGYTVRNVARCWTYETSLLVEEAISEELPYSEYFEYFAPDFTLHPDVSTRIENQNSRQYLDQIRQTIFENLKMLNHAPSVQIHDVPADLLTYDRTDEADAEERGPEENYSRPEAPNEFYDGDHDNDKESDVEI

[11] = target: T2, Serine/threonine-protein kinase mTOR; assay: Inhibition of mTOR in human HepG2 cells assessed as reduction in phosphorylation of p70S6K measured after 24 hrs by western blot analysis; format: cell-based; details: dose 1.5-6 µM
HepG2 [12] = assay: Induction of cell cycle arrest in human HepG2 cells assessed as accumulation of cells in G2/M phase at 6 uM measured after 24 hrs by propidium iodide staining based flow cytometry analysis (Rvb= 17.8 to 18.5%); format: functional
HepG2 [13] = assay: Induction of apoptosis in human HepG2 cells assessed as early apoptotic cells at 5 uM measured after 24 hrs by Annexin V-FITC/PI staining based flow cytometry analysis (Rvb= 6.15%); format: functional
HepG2 [14] = assay: Induction of cell cycle arrest in human HepG2 cells assessed as accumulation of cells in S phase at 3 uM measured after 24 hrs by propidium iodide staining based flow cytometry analysis (reference value: 17 to 26.4%); format: functional
L02 = assay: cells; format: ADME, cell-based; details: Homo sapiens, L02, 72 h
Description: Cytotoxicity against human L02 cells assessed as reduction in cell viability measured after 72 hrs by MTT assay

SK-HEP1 = assay: cells; format: functional, cell-based; details: Homo sapiens, SK-HEP1, 72 h
Description: Antiproliferative activity against human SK-HEP1 cells assessed as inhibition of cell growth measured after 72 hrs by MTT assay

HepG2 [15] = assay: Induction of cell cycle arrest in human HepG2 cells assessed as accumulation of cells in S phase at 1.5 uM measured after 24 hrs by propidium iodide staining based flow cytometry analysis (Rvb= 17 to 26.4%); format: functional
in vitro = details: human, L02 cells versus HepG2 cells
Description: Selectivity index, ratio of IC50 for cytotoxicity against human L02 cells to IC50 for antiproliferative activity against human HepG2 cells

HepG2 [16] = assay: Induction of cell cycle arrest in human HepG2 cells assessed as accumulation of cells in G2/M phase at 3 uM measured after 24 hrs by propidium iodide staining based flow cytometry analysis (reference value: 17.8 to 18.5%); format: functional
MDA-MB-231 = assay: cells; format: functional, cell-based; details: Homo sapiens, MDA-MB-231, 72 h
Description: Antiproliferative activity against human MDA-MB-231 cells assessed as inhibition of cell growth measured after 72 hrs by MTT assay

HepG2 [17] = assay: Induction of apoptosis in human HepG2 cells assessed as live cells at 5 uM measured after 24 hrs by Annexin V-FITC/PI staining based flow cytometry analysis (Rvb= 84.6%); format: functional
MCF7 = assay: cells; format: functional, cell-based; details: Homo sapiens, MCF7, 72 h
Description: Antiproliferative activity against human MCF7 cells assessed as inhibition of cell growth measured after 72 hrs by MTT assay

[18] = target: T2, Serine/threonine-protein kinase mTOR; assay: Inhibition of mTOR (unknown origin) using U-Light-4E-BP1 peptide as a substrate in the presence of ATP incubated for 30 mins by Lance ultra assay
CNE-2 = assay: cells; format: functional, cell-based; details: Homo sapiens, CNE-2, 72 h
Description: Antiproliferative activity against human CNE-2 cells assessed as inhibition of cell growth measured after 72 hrs by MTT assay

HepG2 [19] = assay: Induction of apoptosis in human HepG2 cells assessed as dead cells at 10 uM measured after 24 hrs by Annexin V-FITC/PI staining based flow cytometry analysis (Rvb= 0.082%); format: functional
HepG2 [20] = assay: Induction of cell cycle arrest in human HepG2 cells assessed as accumulation of cells in G2/M phase at 1.5 uM measured after 24 hrs by propidium iodide staining based flow cytometry analysis (Rvb= 17.8 to 18.5%); format: functional
SNU-423 = assay: Antiproliferative activity against human SNU-423 cells assessed as inhibition of cell growth measured after 72 hrs by MTT assay; format: functional, cell-based; details: SNU-423, 72 h
[21] = target: T1, Histone deacetylase (Homo sapiens); assay: Inhibition of HDAC in human HepG2 cells assessed as upregulation of alpha-tubulin acetylation at 6 uM measured after 24 hrs by western blot analysis; format: cell-based
[22] = target: T2, Serine/threonine-protein kinase mTOR; assay: Activation of mTOR in human HepG2 cells assessed as increase in p70S6K phosphorylation at 1.5 uM measured after 24 hrs by western blot analysis; format: cell-based; details: filed as activator
[23] = target: T2, Serine/threonine-protein kinase mTOR; assay: Activation of mTOR in human HepG2 cells assessed as increase in 4EBP1 phosphorylation at 1.5 uM measured after 24 hrs by western blot analysis; format: cell-based; details: filed as activator

SMILES | Activity (HepG2 [1]) [%] | Activity (HepG2 [2]) [%] | Activity (HepG2 [3]) [%] | IC50 (PLC-PRF-5) [µM] | Activity (HepG2 [4]) [%] | Activity (HepG2 [5]) [%] | IC50 (HCT-116) [µM] | Activity (HepG2 [6]) [%] | inhibition [7] | IC50 (HepG2 [8]) [µM] | Activity (HepG2 [10]) | IC50 (Histone deacetylase 3) [µM] | Activity (HepG2 [12]) [%] | Activity (HepG2 [13]) [%] | Activity (HepG2 [14]) [%] | IC50 (L02) [µM] | IC50 (SK-HEP1) [µM] | Activity (HepG2 [15]) [%] | selectivity ratio (in vitro) | Activity (HepG2 [16]) [%] | further results
Nc1nc2cc(-c3nn(CCCCCCC(=O)NO)c4ncnc(N)c34)ccc2o1 | 63.7 | 30.4 | 42.2 | > 50 | 73.3 | 8.06 | 5.39 | 66.2 | Active | 1.61 | Dose-Dependent Effect | 0.0046 | 15.7 | 15.3 | 15.2 | 24.8 | 2.69 | 16.4 | 15.4 | 10.8 | inhibition [9]: Dose-Dependent Effect; inhibition [11]: Dose-Dependent Effect; IC50 (MDA-MB-231): 8.43 µM; Activity (HepG2 [17]): 69.6%; IC50 (MCF7): 11.8 µM; IC50 [18]: 0.00767 µM; IC50 (CNE-2): 4.36 µM; Activity (HepG2 [19]): 0.26%; Activity (HepG2 [20]): 14.8%; IC50 (SNU-423): 6.1 µM; inhibition [21]: Active
Nc1ncnc2c1c(-c1cnc3[nH]ccc3c1)nn2CCCCCCCCC(=O)NO | 69.7 | 19.7 | 62 | 14.9 | 66.6 | 12.3 | 5.46 | 60.1 | Active | 3.05 | Dose-Dependent Effect | 0.034 | 23.5 | 12 | 16.2 | 35.1 | 11.2 | 20.2 | 11.5 | 18.6 | Activity [22]: Active; Activity [23]: Active; IC50 (MDA-MB-231): 11 µM; Activity (HepG2 [17]): 77.5%; IC50 (MCF7): 24.7 µM; IC50 [18]: 0.0923 µM; IC50 (CNE-2): 2.27 µM; Activity (HepG2 [19]): 0.56%; Activity (HepG2 [20]): 19.4%; IC50 (SNU-423): 7.5 µM; inhibition [21]: Active
